Measured values published in ChEMBL document CHEMBL1151574, “Convergent syntheses and cytostatic properties of 2-chloro-2-deoxy-2-fluoroadenosine and its N7-isomer” (1995).
Active and inactive are the calls of the source. The rule behind the calls is not given here.

What was measured:
PHA-Ly [1] = assay: In vitro toxicity against phytohemagglutininin-stimulated peripheral blood lymphocytes (PHA-Ly) at a concentration of 1.0 ug/ml; assay type: functional, Homo sapiens
Raji [2] = assay: In vitro toxicity against Burkitt's lymphoma (B-cell) (Raji) at a concentration of 1.0 ug/ml; assay type: functional, Homo sapiens
U-937 [3] = assay: In vitro toxicity against histocytic lymphoma (U-937) at a concentration of 1.0 ug/ml; assay type: functional, Homo sapiens
PHA-Ly [4] = assay: In vitro toxicity against phytohemagglutininin-stimulated peripheral blood lymphocytes (PHA-Ly) at a concentration of 0.1 ug/ml; assay type: functional, Homo sapiens
IM-9 [5] = assay: In vitro toxicity against myeloma cell line (IM-9) at a concentration of 1.0 ug/ml; assay type: functional, Homo sapiens
Raji [6] = assay: In vitro toxicity against Burkitt's lymphoma (B-cell) (Raji) at a concentration of 0.1 ug/ml; assay type: functional, Homo sapiens
U-937 [7] = assay: In vitro toxicity against histocytic lymphoma (U-937) at a concentration of 10 ug/ml; assay type: functional, Homo sapiens
Raji [8] = assay: In vitro toxicity against Burkitt's lymphoma (B-cell) (Raji) at a concentration of 0.01 ug/ml; assay type: functional, Homo sapiens
PHA-Ly [9] = assay: In vitro toxicity against phytohemagglutininin-stimulated peripheral blood lymphocytes (PHA-Ly) at a concentration of 0.01 ug/ml; assay type: functional, Homo sapiens
MOLT-3 [10] = assay: In vitro toxicity against acute T cell leukemia (MOLT-3) at a concentration of 0.1 ug/ml; assay type: functional, Homo sapiens
U-937 [11] = assay: In vitro toxicity against histocytic lymphoma (U-937) at a concentration of 0.01 ug/ml; assay type: functional, Homo sapiens
MOLT-3 [12] = assay: In vitro toxicity against acute T cell leukemia (MOLT-3) at a concentration of 1.0 ug/ml; assay type: functional, Homo sapiens
Raji [13] = assay: In vitro toxicity against Burkitt's lymphoma (B-cell) (Raji) at a concentration of 10 ug/ml; assay type: functional, Homo sapiens
IM-9 [14] = assay: In vitro toxicity against myeloma cell line (IM-9) at a concentration of 0.01 ug/ml; assay type: functional, Homo sapiens
IM-9 [15] = assay: In vitro toxicity against myeloma cell line (IM-9) at a concentration of 0.1 ug/ml; assay type: functional, Homo sapiens
IM-9 [16] = assay: In vitro toxicity against myeloma cell line (IM-9) at a concentration of 10 ug/ml; assay type: functional, Homo sapiens
MOLT-3 [17] = assay: In vitro toxicity against acute T cell leukemia (MOLT-3) at a concentration of 0.01 ug/ml; assay type: functional, Homo sapiens
MOLT-3 [18] = assay: In vitro toxicity against acute T cell leukemia (MOLT-3) at a concentration of 10 ug/ml; assay type: functional, Homo sapiens
U-937 [19] = assay: In vitro toxicity against histocytic lymphoma (U-937) at a concentration of 0.1 ug/ml; assay type: functional, Homo sapiens
PHA-Ly [20] = assay: In vitro toxicity against phytohemagglutininin-stimulated peripheral blood lymphocytes (PHA-Ly) at a concentration of 10 ug/ml; assay type: functional, Homo sapiens
PHA-Ly [21] = assay: In vitro toxicity against phytohemagglutininin-stimulated peripheral blood lymphocytes (PHA-Ly) at a concentration of 10 ug/ml; No significant toxicity; assay type: functional, cell-based; settings: Homo sapiens
U-937 [22] = assay: In vitro toxicity against histocytic lymphoma (U-937) at a concentration of 10 ug/ml; No significant toxicity; assay type: functional, cell-based; settings: Homo sapiens
MOLT-3 [23] = assay: In vitro toxicity against acute T cell leukemia (MOLT-3) at a concentration of 10 ug/ml; No significant toxicity; assay type: functional, cell-based; settings: Homo sapiens
Raji [24] = assay: In vitro toxicity against Burkitt's lymphoma (B-cell) (Raji) at a concentration of 10 ug/ml; No significant toxicity; assay type: functional, cell-based; settings: Homo sapiens
IM-9 [25] = assay: In vitro toxicity against myeloma cell line (IM-9) at a concentration of 10 ug/ml; No significant toxicity; assay type: functional, cell-based; settings: Homo sapiens

How did the Toxicity (PHA-Ly [1]) turn out when `Nc1nc(Cl)nc2c1ncn2[C@@H]1O[C@H](CO)C(O)[C@H]1F` (single isomer, unassigned) was run?
Its Toxicity is 17%.

What about the Toxicity (Raji [2]) of the same compound?
The Toxicity was 9.1%.

What about the Toxicity (U-937 [3]) of the same compound?
Its Toxicity is 4.9%.

And the Toxicity (PHA-Ly [4])?
The Toxicity was 90%.

And the Toxicity (IM-9 [5])?
The Toxicity was 19%.

And the Toxicity (Raji [6])?
Its Toxicity is 68%.

And the Toxicity (U-937 [7])?
The Toxicity was 1.8%.

What about the Toxicity (Raji [8]) of the same compound?
The Toxicity was 103%.

And the Toxicity (PHA-Ly [9])?
Its Toxicity is 98%.

What about the Toxicity (MOLT-3 [10]) of the same compound?
Its Toxicity is 79%.

What about the Toxicity (U-937 [11]) of the same compound?
Its Toxicity is 99%.

And the Toxicity (MOLT-3 [12])?
The Toxicity was 3.3%.

And the Toxicity (Raji [13])?
The Toxicity was 2.5%.

What about the Toxicity (IM-9 [14]) of the same compound?
The Toxicity was 108%.

And the Toxicity (IM-9 [15])?
The Toxicity was 110%.

And the Toxicity (IM-9 [16])?
Its Toxicity is 5.7%.

What about the Toxicity (MOLT-3 [17]) of the same compound?
The Toxicity was 106%.

And the Toxicity (MOLT-3 [18])?
Its Toxicity is 2.6%.

And the Toxicity (U-937 [19])?
Its Toxicity is 70%.

What about the Toxicity (PHA-Ly [20]) of the same compound?
The Toxicity was 4%.

`Nc1nc(Cl)nc2ncn([C@@H]3O[C@H](CO)C(O)[C@H]3F)c12` (single isomer, unassigned) was tested. Which Toxicity (PHA-Ly [21]) did it give?
The Toxicity was “inactive”.

What about the Toxicity (U-937 [22]) of the same compound?
The Toxicity was “inactive”.

And the Toxicity (MOLT-3 [23])?
Its Toxicity is “inactive”.

And the Toxicity (Raji [24])?
Its Toxicity is “inactive”.

And the Toxicity (IM-9 [25])?
Its Toxicity is “inactive”.
